# Data as given in ChEMBL document CHEMBL3351331, “Novel Disubstituted Pyrimidines as Inhibitors of Bruton's Tyrosine Kinase” (ACS Med Chem Lett, 2015).
# Molecular target: Tyrosine-protein kinase BTK (Homo sapiens, UniProt Q06187)
# Assay: Inhibition of BTK (unknown origin) by Omnia continuous read kinase assay
# Chain of Tyrosine-protein kinase BTK (Q06187 whole entry): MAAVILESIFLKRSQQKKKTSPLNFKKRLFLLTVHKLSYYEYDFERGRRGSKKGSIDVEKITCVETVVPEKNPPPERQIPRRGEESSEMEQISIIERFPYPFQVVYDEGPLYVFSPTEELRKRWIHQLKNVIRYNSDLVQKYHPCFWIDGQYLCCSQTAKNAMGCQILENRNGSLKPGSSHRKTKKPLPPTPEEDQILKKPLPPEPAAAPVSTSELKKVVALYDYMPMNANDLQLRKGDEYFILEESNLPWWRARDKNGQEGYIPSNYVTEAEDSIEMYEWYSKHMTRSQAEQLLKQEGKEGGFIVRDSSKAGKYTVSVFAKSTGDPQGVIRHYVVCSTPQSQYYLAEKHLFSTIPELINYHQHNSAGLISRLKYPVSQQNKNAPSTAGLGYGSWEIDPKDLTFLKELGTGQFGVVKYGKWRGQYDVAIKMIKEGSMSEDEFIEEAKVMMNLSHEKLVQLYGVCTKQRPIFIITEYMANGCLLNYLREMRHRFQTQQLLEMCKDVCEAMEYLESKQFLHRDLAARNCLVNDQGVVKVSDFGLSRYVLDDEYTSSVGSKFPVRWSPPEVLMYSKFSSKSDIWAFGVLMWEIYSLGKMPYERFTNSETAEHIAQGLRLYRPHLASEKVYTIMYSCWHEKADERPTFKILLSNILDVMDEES
structure (smiles),measurement,value
COCCOc1ccc(Nc2ncc(F)c(Nc3cccc(NC(=O)C4CO4)c3)n2)cc1 (stereo unspecified),IC50,< 10 nM
COCCOc1ccc(Nc2ncc(F)c(Nc3cccc(NC(=O)C(O)CO)c3)n2)cc1 (stereo unspecified),IC50,101 nM
C=CC(=O)Nc1cccc(N(C)c2nc(Nc3ccc(OCCO)cc3)ncc2F)c1,IC50,< 10 nM
C=CC(=O)Nc1cccc(Nc2nc(N(C)c3ccc(OCCO)cc3)ncc2F)c1,IC50,101 nM
C=CC(=O)Nc1cccc(Nc2nc(Nc3ccc(O)cc3)ncc2F)c1,IC50,< 10 nM
C=CC(=O)Nc1cccc(Nc2nc(Nc3ccc(OCCO)cc3)ncc2F)c1,IC50,< 10 nM
